Our source for the melting point values is a melting point compilation (Tetko et al.).

As for `CC(=O)c1nc2cc(Cl)ccc2n1C`, the melting point (commonly the temperature, or range, at which the solid turns liquid) was 96 to 98 °C. In the case of `CC(C)(C)c1ccc(S(N)(=O)=O)cc1` it was 136 to 138 °C. `N#Cc1ccnc(OC2CCC2)c1` returned a melting point of 39 to 41 °C.

For the compound `CC(Oc1cccc(F)c1)C(=O)O` (configuration not stated), the melting point fell in the range of 95 to 97 °C. As to `CCOC(=O)Nc1ccc(Br)cc1N`, the melting point was 79 to 81 °C. Consider `CCCCN(C)c1ccc(C(=O)O)cc1`, for which the melting point lay within 134 to 136 °C.

For `O=C1Nc2cc(F)c(Br)cc2C1=O`, the melting point lay within 266 to 268 °C. In the case of `CC(NO)c1ccccc1` (configuration not stated) it was 73 to 75 °C.

In turn, `Cc1nc(-c2cccnc2)[nH]c(=O)c1CCC(=O)O` registered a melting point of 279 to 281 °C. For the compound `O=C(Cc1ccc(Br)cc1)NC(C(=O)O)c1ccccc1` (configuration not stated), the melting point lay in the range of 177 to 179 °C. Take `CC(=O)c1ccc2c(c1)Nc1ccccc1S2`: the melting point lay in the range of 180 to 185 °C. In the case of `Cc1cc(N)ccc1N1CCCC1=O` it was 159 to 161 °C; in that of `N#Cc1cnc2ccccn12`, 154 to 156 °C; in that of `Cc1ccc(NC(=O)C(=O)NN)cc1`, 204 to 206 °C.

As for `N#Cc1ccccc1OCc1ccc(C(=O)O)o1`, the melting point lay within 145 to 147 °C. On to `CCc1cccc2c(C(=O)CC#N)c[nH]c12`, for which the melting point is 178 to 180 °C.

Turning to `Nc1ccc(S(=O)(=O)NCC2CC2)cc1`, the melting point lay within 109 to 111 °C. In the case of `Nc1ccn(CCc2ccncc2)n1` it was 140 to 142 °C; in that of `COc1cc(OC)cc(C(=O)c2c(N)sc3c2CCC(C)C3)c1` (configuration not stated), 162 to 164 °C. Consider `Cc1cnn(-c2ccc(C(=O)O)cc2)c1`, for which the melting point was 240 to 242 °C. `CC(C)CCC(=O)NCCCS(N)(=O)=O`: the melting point was 90 to 92 °C.

Turning to `O=C(CCl)Nc1sc2c(c1C(=O)c1ccccc1)CCCC2`, the melting point was 110 to 112 °C.

With `CS(=O)(=O)c1cccc(C(N)=O)c1`, the melting point lay in the range of 177 to 179 °C. `O=C(O)c1cc2ccc(Cl)cc2[nH]1`: the melting point fell in the range of 242 to 244 °C. In the case of `COc1ccc(-n2nc(C(=O)O)cc2C)cc1` it was 149 to 151 °C. The compound `OC1CCCC1n1cccn1` (configuration not stated) displayed a melting point of 48 to 50 °C. The result for `O=C(O)c1c[nH]c2cccc(Br)c12` reads 159 to 161 °C. In the case of `CS(=O)(=O)c1ccc(C(=O)c2ccccc2)cc1` it was 131 to 133 °C; in that of `N#Cc1cc(C(F)(F)F)ccc1O`, 152 to 154 °C. As for `Cc1csc(NC(=O)CCl)n1`, the melting point lay in the range of 127 to 129 °C. Turning to `CC(C)n1ncc(C(=O)O)c1N`, the melting point is 109 to 111 °C.

Compound `CCCn1c(=O)n(C)c(=O)c2c(S)nc(C(C)C)nc21` registered a melting point of 204 to 206 °C. Take `CNC(=O)CNc1ccccc1C`: the melting point fell in the range of 112 to 114 °C. The compound `ClCc1nc2ncc(Br)cc2[nH]1` had a melting point of 209 to 211 °C. The result for `O=S(=O)(Cl)C=Cc1ccc(F)cc1` reads 110 to 112 °C; that for `CCOC(=O)COc1ccc(C#N)cc1`, 54 to 56 °C. In the case of `COC(=O)c1cc(S(=O)(=O)Cl)cn1C`, the melting point was in the range of 78 to 80 °C. Consider `O=C(O)CN(CCCCCCN(CC(=O)O)CC(=O)O)CC(=O)O`, for which the melting point was in the range of 237 to 241 °C.

Compound `CC(=Cc1ccc(Br)o1)[N+](=O)[O-]` registered a melting point of 89 to 91 °C. The result for `C=CCC(NC(C)=O)C(=O)O` (configuration not stated) reads 114 to 116 °C. The compound `COCc1cc(C(=O)O)ccc1F` registered a melting point of 100 to 102 °C. Compound `CC(N)(C(=O)O)c1cc(F)ccc1F` (configuration not stated) yielded a melting point of 301 to 303 °C. With `C#CCOc1c(Cl)cc(C=O)cc1OC`, the melting point was 106 to 108 °C. The result for `O=C(O)c1ccc2c(=O)n(-c3ccccc3)c(S)nc2c1` reads 368 to 370 °C. In the case of `O=C1OC(=O)C(Cl)=C1Cl` it was 107 to 109 °C; in that of `CCOC=C1C(=O)N(c2ccccn2)C(=O)c2ccccc21`, 231 to 233 °C; in that of `O=c1[nH]cnc2cc(Br)ccc12`, 262 to 264 °C. `Cc1cc(C(=O)O)cc(S(=O)(=O)N2CCC(C)CC2)c1C` returned a melting point of 176 to 178 °C. Take `N#Cc1ccc(Br)cc1C(F)(F)F`: the melting point lay in the range of 35 to 37 °C. The result for `Cc1ccc(-c2nc(CC(=O)O)cs2)cc1` reads 139 to 141 °C; that for `CCC(C#N)(CC)NC(=O)OC(C)(C)C`, 98 to 100 °C; that for `Nc1ccc2nc(S)oc2c1`, 208 to 210 °C. The result for `Nc1nc2ccc(Br)cn2n1` reads 183 to 185 °C; that for `O=C(O)c1cc(Cl)ccc1-n1cnnn1`, 198 to 200 °C.

As for `O=C(O)c1c(C(F)(F)F)noc1C(F)(F)F`, the melting point lay in the range of 169 to 171 °C. `O=[N+]([O-])c1ccc(CBr)c(F)c1` returned a melting point of 59 to 61 °C.

Take `Fc1cccc2[nH]c(C3CCNCC3)nc12`: the melting point fell in the range of 229 to 231 °C.

`CCOc1cccc(CC(=O)O)c1` showed a melting point of 89 to 91 °C. Compound `Cc1ccc(S(=O)(=O)NCCN)s1` showed a melting point of 94 to 96 °C. In turn, `CC(=O)c1c(C)nn(CCS(C)(=O)=O)c1C` showed a melting point of 139 to 141 °C. The compound `O=C(O)c1cc(-c2ccccc2)nc2cccc(Br)c12` showed a melting point of 235 to 237 °C. In the case of `NC(=O)NCc1ccncc1` it was 198 to 200 °C; in that of `CSc1[nH]c(=O)c(C(=O)O)cc1C#N`, 254 to 256 °C; in that of `O=C(O)CCCNc1ccc([N+](=O)[O-])cc1`, 158 to 160 °C.

For the compound `CC(C)(C)c1cn2nc(Br)sc2n1`, the melting point was in the range of 105 to 107 °C. `Ic1ccc(OCc2ccc3ncccc3c2)cc1` registered a melting point of 161 to 163 °C. The result for `O=C(O)c1cc(Cl)cc(Cl)c1I` reads 173 to 175 °C; that for `COc1cc(Cl)c(C(=O)CBr)cc1OC`, 93 to 95 °C; that for `O=C(O)C1(OCc2ccccc2)CCOCC1`, 69 to 71 °C. In the case of `O=C(O)c1csc2cncn12` it was 229 to 231 °C; in that of `NC(=S)NC1CC1`, 138 to 140 °C. The result for `N#Cc1cc(Br)cc(S(=O)(=O)Cl)c1` reads 74 to 76 °C. `COc1ccc(C=O)cc1C#N` displayed a melting point of 119 to 121 °C. In the case of `O=Cc1c[nH]nc1-c1cccc(Cl)c1` it was 139 to 141 °C. The result for `CC(C)NS(=O)(=O)c1ccc(Cl)c(C(=O)O)c1` reads 147 to 149 °C; that for `NC(=O)Nc1ccc(Br)cc1C(=O)O`, 171 to 173 °C; that for `NC(=O)C(N)c1cccc(Br)c1` (configuration not stated), 107 to 109 °C. Compound `CSc1nc2ncnc(Cl)c2s1` came in with a melting point of 149 to 151 °C.

Turning to `Cc1nc(O)nc(O)c1N`, the melting point lay in the range of 259 to 261 °C.

Compound `CS(=O)(=O)c1ccc(F)c(S(C)(=O)=O)c1` registered a melting point of 196 to 198 °C. `O=C(O)c1cc(S(=O)(=O)NCc2cccnc2)c(Cl)cc1Cl` showed a melting point of 245 to 247 °C. The compound `Nc1ccccc1-c1nnnn1C1CC1` returned a melting point of 97 to 99 °C. In the case of `N#CCC(=O)c1ccc(Br)s1` it was 143 to 145 °C; in that of `COc1ccc(Oc2ccc(CO)cc2)cc1`, 100 to 102 °C. In turn, `O=[N+]([O-])c1ccc(-c2noc(C(F)F)n2)cc1` showed a melting point of 76 to 78 °C. In the case of `Cc1csc(NC(C)C(=O)O)n1` (configuration not stated), the melting point fell in the range of 189 to 191 °C. The compound `CSc1nc(-c2ccc(F)cc2)nc(C)c1C(=O)O` showed a melting point of 231 to 233 °C.
